# Where a name gives a salt, the structure may show the parent alone.
# Tests used:
# Recombinant human iNOS = target: T1, Recombinant human iNOS (Homo sapiens, UniProt P35228); test: Screen 2: recombinant human NO synthase inhibition, L-[3H]citrulline formation; assay type: biochemical; details: recombinant human iNOS expressed in E. coli; 60 min pre-incubation with NADPH
# T1 construct: made in house; host or cells: E. coli (lysate)
# Experimental: Recombinant human NO synthases (iNOS, eNOS & nNOS) were expressed in E. coli and lysates were prepared in Herpes buffer (pH 7.4) containing co-factors (FAD, FMN, H4B), protease inhibitors, lysozyme and the detergent, CHAPS. These preparations were used, at suitable dilution, to assess inhibition of the various isoforms. Inhibition of NOS was determined by measuring the formation of L-[^3H]citrulline from L-[^3H]arginine using an adaptation of the method of Förstermann et al.^9 Enzyme assays were performed in the presence of 3 μM [^3H]arginine, 1 mM NADPH and other co-factors required to support NOS activity (FAD, FMN, H4B, calmodulin, Ca^2+). […] Incubations continued for a further 60 min before the assays were quenched and [^3H]citrulline separated from unreacted substrate by chromatography on Dowex-50W resin in a 96-well format.
# Nitric oxide synthase = target: T2, Nitric oxide synthase (Mus musculus, UniProt P29477); test: Screen 1: nitric oxide synthase inhibition, 3H-L-arginine to 3H-L-citrulline conversion, lysate of induced J774A-1 cells; assay type: biochemical; details: enzyme from LPS/IFNg-induced murine macrophage cell line J774A-1; 1 hour at room temperature
# T2 construct: endogenous in cells; host or cells: J774A-1 murine macrophage cell line, induced with LPS and IFN-gamma; crude lysate
# Experimental: The activity of compounds of formula (I), or a pharmaceutically acceptable salt, enantiomer or racemate thereof, may be screened for nitric oxide synthase inhibiting activity by a procedure based on that of Förstermann et al., Eur. J. Pharm., 1992, 225, 161-165. Nitric oxide synthase converts ^3H-L-arginine into ^3H-L-citrulline which can be separated by cation exchange chromatography and quantified by liquid scintillation counting.
# Enzyme is prepared, after induction, from the cultured murine macrophage cell line J774A-1 (obtained from the laboratories of the Imperial Cancer Research Fund). J774A-1 cells are cultured in Dulbeccos Modified Eagles Medium (DMEM) supplemented with 10% foetal bovine serum, 4 mM L-glutamine and antibiotics (100 units/ml penicillin G, […] streptomycin & […] amphotericin B). Cells are routinely grown in […] flasks containing 35 ml medium kept at 37° C. and in a humidified atmosphere containing 5% CO2. […]
# Labelled L-citrulline is separated from labelled L-arginine using Dowex AG-50W. […] After allowing the samples to dry the L-citrulline is quantified by scintillation counting.
# In a typical experiment basal activity is 300 dpm per 75 μl sample which is increased to 1900 dpm in the reagent controls. […] Compounds are tested at a range of concentrations and from the inhibitions obtained IC50 values are calculated. […]
# [1] = target: T3, human form of induced nitric oxide synthase (Homo sapiens, UniProt P35228); test: Screen 3: nitrite accumulation in cytokine-induced DLD-1 cells (Griess reagent); assay type: cell-based; details: DLD-1 human colorectal carcinoma cells, nitrite accumulation over 5 hours
# T3 construct: Nitric oxide synthase was induced in cells by addition of medium containing human recombinant gamma-IFN; endogenous in cells; host or cells: DLD-1 human colorectal carcinoma cells (ECACC 90102540), induced with IFN-gamma, TNF-alpha, IL-6 and IL-1-beta
# Experimental: The human colorectal carcinoma cell line, DLD-1 (obtained from the European Collection of Animal Cell Culture—cell line number 90102540) was routinely grown in RPMI 1640 supplemented with 10% (v/v) foetal bovine serum, and 2 mM L-glutamine, at 37° C. in 5% CO2. Nitric oxide synthase was induced in cells by addition of medium containing human recombinant gamma-IFN (1000 units/ml), TNF-alpha (200 U/ml), IL-6 (200 U/ml) and IL-1-beta (250 U/ml). After incubation for 18 hours at 37° C., the medium was removed and the cells washed with warm phosphate buffered saline. Cells were incubated for a further 5 hours at 37° C./5% CO2 in RPMI 1640 containing 100 μM L-arginine and 100 μM verapamil-HCl in the presence and absence of test compounds. Nitrite accumulation was determined by mixing an equal volume of culture media with Griess reagent (10 mg/ml sulphanilamide, 1 mg N-(1-naphthyl)ethylenediamine in 1 ml 2.5% (v/v) phosphoric acid). Inhibition in the presence of compounds was calculated relative to the nitrite levels produced by untreated cells. IC50 values were estimated from a semi-log plot of % inhibition versus concentration of compound.
compound,measurement,setting,value
"Cc1cc(S[C@H](CN)c2ccccc2)c(C#N)s1 [Example 1, 3-[[(1S)-2-Amino 1-phenylethyl]thio]-5-methyl-2-thiophenecarbonitrile oxalate]",IC50,Recombinant human iNOS,< 10 µM
same,IC50,Nitric oxide synthase,< 10 µM
same,IC50,[1],< 100 µM

# Reference: US7329686B2, “Substituted thiophene compounds” (AstraZeneca AB, priority 2002, dated 2008)
